The results in this text go back to US10648038B2, “Biomarkers to identify patients that will respond to treatment and treating such patients” (Acetylon Pharmaceuticals, Inc., priority 2012, dated 2020).

The assay relates to 65 cancer cell lines. Put plainly: Cell viability screening of a panel of 65 cancer cell lines, association with cancer type and gene mutation. In kind it is cell-based, human. How it is done:
65 cancer cell lines (including 12 of breast cancer, 11 of hematologic cancer, 9 of colorectal cancer, 6 of lung cancer, 6 of skin cancer, 4 brain cancer, 3 of renal cancer, 3 of liver cancer, 3 of prostate cancer, 3 of pancreatic cancer, 3 of ovarian cancer, and 2 of stomach cancer) were selected for analysis. Each of the cell lines was cultured and treated with the HDAC6 inhibitor, Compound A, with or without the proteasome inhibitor, bortezomib, before their cell viabilities were measured at the end of treatments. The sensitivities of the cell lines were described using the concentration of Compound A that provides 50% inhibition of cell viabilities (IC50). In all analyses, the logarithm of drug sensitivity values (i.e., Log [IC50]) was used, which is more normally distributed than the raw IC50 values. This is because most standard statistical tests (e.g., t-test and correlation analysis) assume the normal distribution of data points.
For the association tests of gene mutations, 50 common oncogene/tumor suppressor genes were selected to analyze the results. Mutation profiles of the cell lines were downloaded from the Sanger COSMIC DB on the Internet: www dot sanger dot ac dot uk/cosmic. For each gene locus, the “Fisher's Exact Test” was used to calculate statistical significance (p<0.05) of association between the genotype and the cell sensitivities to the treatments.

Setting [1] is: most cell lines of the panel, agent alone.

`O=C(CCCCCCNC(=O)c1cnc(N(c2ccccc2)c2ccccc2)nc1)NO` [Compound A, 2-(diphenylamino)-N-(7-(hydroxyamino)-7-oxoheptyl)pyrimidine-5-carboxamide]: the “sensitivity of cell lines to treatment (cell viability)” value (shortened to “sensitivity of cell lines to treatment”) (a number of lymphoma and leukemia cell lines, single agent) is recorded as “substantial sensitivity”; the “sensitivity of cell lines to treatment” value (breast cancer cell lines with Her2 protein overexpression (ERBB2 amplification), Fisher's Exact Test p<0.05) was “sensitive”; the “sensitivity of cell lines to treatment” value (breast cancer cell lines, basal-type or triple negative, Fisher's Exact Test p<0.05) is on record as “resistant”; the “sensitivity of cell lines to treatment” value (cell lines for hematologic malignant cancer, Compound A alone) is recorded as “most sensitive”; the “sensitivity of cell lines to treatment” value (lymphoma cells, compared with other cell groups of the 65 lines) is “most sensitive”; the “sensitivity of cell lines to treatment” value under setting [1] was “resistant”.
Turning to `CC(C)C[C@H](NC(=O)[C@H](Cc1ccccc1)NC(=O)c1cnccn1)B(O)O` [bortezomib, reference compound], under setting [1], the “sensitivity of cell lines to treatment” value is on record as “resistant”.
